Assays:
[1] = target: T1, Protein kinase C zeta type (Homo sapiens) (UniProt Q05513); assay: Inhibition of human recombinant PKCz at 500 nM related to control ULK1
T1 sequence (whole entry): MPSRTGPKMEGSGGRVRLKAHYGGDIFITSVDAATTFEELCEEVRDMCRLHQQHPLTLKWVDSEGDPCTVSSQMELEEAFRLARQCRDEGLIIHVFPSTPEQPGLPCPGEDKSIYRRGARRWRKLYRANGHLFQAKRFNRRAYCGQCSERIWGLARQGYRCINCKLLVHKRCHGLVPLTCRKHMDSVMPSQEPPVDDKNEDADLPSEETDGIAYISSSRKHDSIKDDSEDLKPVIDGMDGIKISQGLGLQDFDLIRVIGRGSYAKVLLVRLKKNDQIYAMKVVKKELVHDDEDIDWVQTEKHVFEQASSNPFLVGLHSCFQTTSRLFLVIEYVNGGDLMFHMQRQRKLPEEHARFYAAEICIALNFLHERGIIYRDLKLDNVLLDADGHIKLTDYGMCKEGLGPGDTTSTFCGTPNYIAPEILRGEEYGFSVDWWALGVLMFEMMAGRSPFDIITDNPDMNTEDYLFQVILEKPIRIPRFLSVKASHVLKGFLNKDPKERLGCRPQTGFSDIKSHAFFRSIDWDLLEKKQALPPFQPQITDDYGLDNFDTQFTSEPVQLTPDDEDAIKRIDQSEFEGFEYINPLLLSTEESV

[2] = target: Activin receptor type-2A (Homo sapiens) (UniProt P27037); assay: Inhibition of human recombinant ACTR2 at 500 nM in presence of ATP by radiometric assay relative to control
[3] = target: T2, Serine/threonine-protein kinase Nek1 (Homo sapiens) (UniProt Q96PY6); assay: Inhibition of human recombinant NEK1 at 15 nM related to control ULK1
T2 sequence (whole entry): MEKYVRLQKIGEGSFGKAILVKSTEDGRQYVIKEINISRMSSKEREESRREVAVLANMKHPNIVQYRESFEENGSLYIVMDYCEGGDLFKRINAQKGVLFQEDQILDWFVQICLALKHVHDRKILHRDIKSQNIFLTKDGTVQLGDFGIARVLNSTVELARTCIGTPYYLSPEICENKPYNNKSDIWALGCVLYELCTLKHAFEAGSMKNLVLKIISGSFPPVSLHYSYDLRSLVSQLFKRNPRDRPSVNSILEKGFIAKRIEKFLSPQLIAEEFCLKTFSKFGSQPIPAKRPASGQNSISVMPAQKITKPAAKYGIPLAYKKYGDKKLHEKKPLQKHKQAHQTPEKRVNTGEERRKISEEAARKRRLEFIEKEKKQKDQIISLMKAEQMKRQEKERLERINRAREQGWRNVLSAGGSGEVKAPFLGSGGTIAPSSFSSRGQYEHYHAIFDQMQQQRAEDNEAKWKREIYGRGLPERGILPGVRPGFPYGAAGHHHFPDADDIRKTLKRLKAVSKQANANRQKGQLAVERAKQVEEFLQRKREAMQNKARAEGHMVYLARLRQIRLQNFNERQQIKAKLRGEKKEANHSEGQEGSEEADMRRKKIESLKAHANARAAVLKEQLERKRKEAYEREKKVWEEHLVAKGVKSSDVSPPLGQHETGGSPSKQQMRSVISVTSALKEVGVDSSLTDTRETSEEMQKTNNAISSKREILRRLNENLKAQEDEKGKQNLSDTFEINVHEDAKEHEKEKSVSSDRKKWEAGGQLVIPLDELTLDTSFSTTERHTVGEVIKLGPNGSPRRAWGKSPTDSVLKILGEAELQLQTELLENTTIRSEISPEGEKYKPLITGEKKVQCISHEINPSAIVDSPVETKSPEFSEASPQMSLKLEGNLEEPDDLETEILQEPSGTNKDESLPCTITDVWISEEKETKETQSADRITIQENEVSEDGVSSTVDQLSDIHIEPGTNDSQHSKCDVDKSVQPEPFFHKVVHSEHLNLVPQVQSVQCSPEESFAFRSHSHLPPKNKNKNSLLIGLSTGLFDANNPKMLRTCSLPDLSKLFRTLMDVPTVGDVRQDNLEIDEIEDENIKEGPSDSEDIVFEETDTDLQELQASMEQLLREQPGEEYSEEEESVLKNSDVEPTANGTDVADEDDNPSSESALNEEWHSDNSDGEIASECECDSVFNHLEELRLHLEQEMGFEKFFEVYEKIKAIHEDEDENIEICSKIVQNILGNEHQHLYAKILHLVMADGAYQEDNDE

[4] = target: T3, Serine/threonine-protein kinase Nek9 (Homo sapiens) (UniProt Q8TD19); assay: Inhibition of human recombinant NEK9 at 15 nM related to control ULK1
T3 sequence (whole entry): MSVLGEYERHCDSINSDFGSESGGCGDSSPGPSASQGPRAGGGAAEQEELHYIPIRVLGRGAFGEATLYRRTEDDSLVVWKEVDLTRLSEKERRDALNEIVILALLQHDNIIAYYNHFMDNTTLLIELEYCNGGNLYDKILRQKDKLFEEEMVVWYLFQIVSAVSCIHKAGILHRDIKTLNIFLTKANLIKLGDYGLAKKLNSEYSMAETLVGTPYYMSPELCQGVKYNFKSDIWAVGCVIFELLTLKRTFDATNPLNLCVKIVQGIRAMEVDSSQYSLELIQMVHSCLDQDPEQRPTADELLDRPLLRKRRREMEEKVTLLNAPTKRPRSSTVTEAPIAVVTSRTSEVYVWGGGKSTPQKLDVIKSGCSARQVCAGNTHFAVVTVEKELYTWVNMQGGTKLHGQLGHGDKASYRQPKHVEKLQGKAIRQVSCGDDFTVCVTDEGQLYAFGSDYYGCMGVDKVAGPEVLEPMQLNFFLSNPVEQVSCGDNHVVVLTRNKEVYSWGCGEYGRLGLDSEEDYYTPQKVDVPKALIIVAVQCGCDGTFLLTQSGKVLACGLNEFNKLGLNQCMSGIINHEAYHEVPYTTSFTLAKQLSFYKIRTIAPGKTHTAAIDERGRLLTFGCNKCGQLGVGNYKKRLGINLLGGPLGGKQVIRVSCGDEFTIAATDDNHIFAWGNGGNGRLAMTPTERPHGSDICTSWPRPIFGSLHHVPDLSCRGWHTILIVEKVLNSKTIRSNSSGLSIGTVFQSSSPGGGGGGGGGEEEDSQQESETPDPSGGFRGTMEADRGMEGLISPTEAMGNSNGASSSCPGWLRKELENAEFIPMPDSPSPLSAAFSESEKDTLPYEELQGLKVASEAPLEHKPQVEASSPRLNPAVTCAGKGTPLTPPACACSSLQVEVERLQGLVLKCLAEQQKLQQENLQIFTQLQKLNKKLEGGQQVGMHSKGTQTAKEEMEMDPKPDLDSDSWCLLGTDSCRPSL

[5] = target: Ribosomal protein S6 kinase alpha-1 (Homo sapiens) (UniProt Q15418); assay: Inhibition of human recombinant RSK1 at 15 nM in presence of ATP by radiometric assay relative to control

Row | SMILES | fold change (FC) [1] | inhibition [2] [%] | fold change (FC) [3] | fold change (FC) [4] | inhibition [5] [%]
1 | CNC(=O)c1ccccc1Oc1nc(Nc2cc(OC)c(OC)c(OC)c2)ncc1Br | 0 | 3 | – | – | –
2 | CC(C)[C@H](NC(=O)c1cc(-c2cnn3cc(-c4ccc(OCCN5CCCCC5)cc4)cnc23)cs1)C(F)(F)F | – | – | 0.03 | 0.25 | 23

Source: ChEMBL document CHEMBL5653631, “A Potent and Selective ULK1 Inhibitor Suppresses Autophagy and Sensitizes Cancer Cells to Nutrient Stress” (iScience, 2018)
